This passage reports IC50 results from patent US20160083400A1, “TRICYCLIC GUANIDINE DERIVATIVE” (Sunovion Pharmaceuticals Inc., priority 2014, published 2016).

Each structure is given as a SMILES string. A value given as a limit tells only on which side of the number the result lay.

Type in all cases: biochemical
One assay addresses PDE1C (Homo sapiens, UniProt Q14123). Kind of assay: In vitro HTRF PDE1 inhibition assay (PDE1C). The source says:
(§1) An exemplary procedure for the in vitro Homogenous Time Resolved Fluorescence (HTRF) assay, which can be used to determine the inhibitory action of compounds of the invention toward PDE1 or its isoforms, follows.
(§2) The HTRF PDE1 assay utilized the HTRF technology, which is based on the competition between unlabeled cyclic nucleotide and cyclic nucleotide labeled with XL665 for the binding to cyclic nucleotide-specific antibody labeled with cryptate. The HTRF signal is thus inversely proportional to the concentration of cyclic nucleotide being measured. Since phosphodiesterases break down cyclic nucleotides the HTRF signal was used to determine PDE activity.
(§3) The Cisbio cGMP HTRF assay kit (Cat no: 62GM2PEC) was utilized. Cyclic GMP was diluted to 200 nM in HTRF assay buffer (1 mM CaCl2, 10 mM MgCl2, 10 mM Tris-HCl, 0.1% BSA, pH7.4). 10 μl of compound or DMSO was diluted in 200 nM cyclic GMP solution and added to wells of a 96 well white plate to give 100 nM cyclic GMP in 1% DMSO final concentration. PDE (1A3, 1B or 1C) was diluted to 2× working concentration in HTRF assay buffer with 4 μg/ml Calmodulin, and 10 μl was added to initiate the reaction. The plate was then incubated for 45 minutes at 37° C. d2-Labelled cyclic GMP and anti-cGMP cryptate were diluted in 50 mM phosphate buffer, 0.8M KF, 1% Triton X100, 0.2% BSA, pH7.0. Following incubation 10 μl d2-cGMP, then 10 μl anti cGMP cryptate were added to each well and the plate was incubated for 45 minutes at rt. The plate was then read on Perkin Elmer Victor at 2 different FRET readings ex/emm 340 nm/665 nm and 340 nm/615 nm.
(§4) Compounds having an IC50 of <1 μM, are denoted as +++. Compounds having an IC50 of 1-10 μM, are denoted as ++. Compounds having an IC50 of 10-100 μM, are denoted as +.

In a further assay the target is PDE1B (Homo sapiens, UniProt Q01064). Description: In vitro HTRF PDE1 inhibition assay (PDE1B). The note with it: 100 nM cyclic GMP, calmodulin, 45 minutes at 37° C. (Time-resolved FRET reads energy transfer from a long-lived donor to a nearby acceptor.)
The target in another assay is PDE1A (PDE 1A3) (Homo sapiens, UniProt P54750). Description: In vitro HTRF PDE1 inhibition assay (PDE1A). The note with it: PDE1A (1A3); 100 nM cyclic GMP, calmodulin, 45 minutes at 37° C.
From the text: as §1, §2, §3, §4

PDE1C, sequence (Q14123 whole entry, canonical isoform): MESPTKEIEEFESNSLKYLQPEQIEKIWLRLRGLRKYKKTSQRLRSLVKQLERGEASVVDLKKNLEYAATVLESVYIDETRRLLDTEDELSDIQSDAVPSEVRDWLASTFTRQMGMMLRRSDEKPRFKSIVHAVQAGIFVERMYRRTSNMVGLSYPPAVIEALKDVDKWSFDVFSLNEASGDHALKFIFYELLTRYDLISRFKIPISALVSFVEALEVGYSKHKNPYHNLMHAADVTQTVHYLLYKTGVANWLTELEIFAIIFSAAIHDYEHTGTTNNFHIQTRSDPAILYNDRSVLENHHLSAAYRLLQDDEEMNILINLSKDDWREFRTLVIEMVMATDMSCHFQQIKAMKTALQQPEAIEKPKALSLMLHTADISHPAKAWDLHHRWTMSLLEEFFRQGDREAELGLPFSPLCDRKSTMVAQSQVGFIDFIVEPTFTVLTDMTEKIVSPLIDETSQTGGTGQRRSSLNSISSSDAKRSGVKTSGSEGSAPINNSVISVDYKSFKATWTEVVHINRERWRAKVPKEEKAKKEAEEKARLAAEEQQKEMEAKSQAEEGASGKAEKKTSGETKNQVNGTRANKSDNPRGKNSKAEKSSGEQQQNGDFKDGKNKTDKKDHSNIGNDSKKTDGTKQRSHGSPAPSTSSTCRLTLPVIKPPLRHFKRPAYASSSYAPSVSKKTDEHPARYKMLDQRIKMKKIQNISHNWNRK
PDE1B, sequence (Q01064 whole entry): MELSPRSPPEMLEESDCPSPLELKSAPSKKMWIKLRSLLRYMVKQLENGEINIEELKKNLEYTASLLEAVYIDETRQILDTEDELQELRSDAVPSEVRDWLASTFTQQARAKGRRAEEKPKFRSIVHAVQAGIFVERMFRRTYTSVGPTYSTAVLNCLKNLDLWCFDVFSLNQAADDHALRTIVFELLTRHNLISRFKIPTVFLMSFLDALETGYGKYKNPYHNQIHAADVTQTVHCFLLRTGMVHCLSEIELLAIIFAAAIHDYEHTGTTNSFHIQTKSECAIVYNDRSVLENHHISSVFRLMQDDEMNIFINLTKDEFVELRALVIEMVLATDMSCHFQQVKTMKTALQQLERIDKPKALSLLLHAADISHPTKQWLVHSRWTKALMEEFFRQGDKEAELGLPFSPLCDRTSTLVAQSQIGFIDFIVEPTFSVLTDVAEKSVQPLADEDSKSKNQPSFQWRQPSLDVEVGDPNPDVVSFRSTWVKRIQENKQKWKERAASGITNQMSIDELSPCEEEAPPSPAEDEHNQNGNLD
PDE1A (PDE 1A3), sequence (P54750 whole entry): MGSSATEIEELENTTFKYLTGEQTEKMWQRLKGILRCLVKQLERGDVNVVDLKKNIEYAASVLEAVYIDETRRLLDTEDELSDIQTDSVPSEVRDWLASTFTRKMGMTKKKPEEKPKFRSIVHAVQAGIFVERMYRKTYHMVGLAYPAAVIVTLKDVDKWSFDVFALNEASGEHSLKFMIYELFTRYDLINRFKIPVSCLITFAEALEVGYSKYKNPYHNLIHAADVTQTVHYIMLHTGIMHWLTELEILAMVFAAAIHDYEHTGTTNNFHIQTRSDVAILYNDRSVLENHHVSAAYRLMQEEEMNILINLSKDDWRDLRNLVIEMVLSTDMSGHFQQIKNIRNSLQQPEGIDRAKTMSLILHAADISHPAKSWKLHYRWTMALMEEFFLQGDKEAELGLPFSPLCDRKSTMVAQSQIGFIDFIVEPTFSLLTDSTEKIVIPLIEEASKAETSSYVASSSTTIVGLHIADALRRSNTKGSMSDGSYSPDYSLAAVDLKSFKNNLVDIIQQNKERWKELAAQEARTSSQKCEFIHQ
Experimental for PDE1B: The Cisbio cGMP HTRF assay kit (Cat no: 62GM2PEC) was utilized. Cyclic GMP was diluted to 200 nM in HTRF assay buffer (1 mM CaCl2, 10 mM MgCl2, 10 mM Tris-HCl, 0.1% BSA, pH7.4). […] PDE (1A3, 1B or 1C) was diluted to 2× working concentration in HTRF assay buffer with 4 μg/ml Calmodulin, and 10 μl was added to initiate the reaction. The plate was then incubated for 45 minutes at 37° C. d2-Labelled cyclic GMP and anti-cGMP cryptate were diluted in 50 mM phosphate buffer, 0.8M KF, 1% Triton X100, 0.2% BSA, pH7.0. Following incubation 10 μl d2-cGMP, then 10 μl anti cGMP cryptate were added to each well and the plate was incubated for 45 minutes at rt. The plate was then read on Perkin Elmer Victor at 2 different FRET readings ex/emm 340 nm/665 nm and 340 nm/615 nm.

Regarding `O=c1c2cnn(C3CCCC3)c2nc2n1CCC(c1ccc(Cl)cc1)N2` (centres unmarked) [Example 4], the IC50 against PDE1C is 1000 to 10000 nM; at PDE1B, less than 1 µM; at PDE1A (PDE 1A3), 1 to 10 µM.
As to `CC(C)c1ncc2c(=O)n3c(nn12)N[C@@H](c1ccc(Cl)cc1)CC3` [Example 18, (2R)-2-(4-Chlorophenyl)-9-isopropyl-1,2,3,4-tetrahydro-6H-imidazo[5,1-f]pyrimido[2,1-c][1,2,4]triazin-6-one], the IC50 is 1000 to 10000 nM at PDE1C, less than 1 µM against PDE1B and less than 1 µM on PDE1A (PDE 1A3).
With `CC(C)n1ncc2c(=O)n3c(nc21)N[C@@H](c1ccc(Cl)cc1)CC3` [Example 27], the results for the IC50 against PDE1C, against PDE1B and against PDE1A (PDE 1A3) were 1000 to 10000 nM, less than 1 µM and less than 1 µM, respectively.
As to `CC(C)n1ncc2c(=O)n3c(nc21)NC(c1ccc(C(F)(F)F)cc1)CC3` (centres unmarked) [Example 29], the concentration for half-maximal inhibition (IC50) against PDE1C is 1000 to 10000 nM; at PDE1B, less than 1 µM; against PDE1A (PDE 1A3), less than 1 µM.
Consider `CC(C)c1ncc2c(=O)n3c(nn12)NC(c1ccc(Cl)cc1)CC3` (centres unmarked) [Example 46], for which the 50% inhibitory concentration (IC50) was 1000 to 10000 nM against PDE1C, less than 1 µM on PDE1B and 10 to 100 µM against PDE1A (PDE 1A3).
On to `CC(C)c1ncc2c(=O)n3c(nn12)NCCC3` [Example 52], for which the figures for the 50% inhibitory concentration (IC50) on PDE1C, against PDE1B and on PDE1A (PDE 1A3) were 1000 to 10000 nM, less than 1 µM and 1 to 10 µM, respectively.
For `O=c1c2cnc(C3CCOCC3)n2nc2n1CCC(c1ccc(Cl)cc1)N2` (centres unmarked) [Example 55], the half-maximal inhibitory concentration (IC50) against PDE1C was 1000 to 10000 nM; against PDE1B it was less than 1 µM; at PDE1A (PDE 1A3), less than 1 µM.
For `COc1ccc(C2CCn3c(nn4c(C5CCOCC5)ncc4c3=O)N2)cc1` (centres unmarked) [Example 57], the IC50 against PDE1C is less than 1000 nM; against PDE1B it was less than 1 µM; at PDE1A (PDE 1A3), less than 1 µM.
On to `O=c1c2cnc(C3CCCC3)n2nc2n1CC[C@H](c1ccc(Cl)cc1)N2` [Example 61], for which the half-maximal inhibitory concentration (IC50) was less than 1000 nM on PDE1C, less than 1 µM against PDE1B and less than 1 µM at PDE1A (PDE 1A3).
`O=c1c2cnc(C3CCC3)n2nc2n1CC[C@H](c1ccc(Cl)cc1)N2` [Example 65]: the half-maximal inhibitory concentration (IC50) was less than 1000 nM against PDE1C, less than 1 µM at PDE1B and less than 1 µM at PDE1A (PDE 1A3).
On to `O=c1c2cnc(C3CCOCC3)n2nc2n1CC[C@H](c1ccc(Cl)cc1)N2` [Example 69, (2R)-2-(4-Chlorophenyl)-9-(tetrahydro-2H-pyran-4-yl)-1,2,3,4-tetrahydro-6H-imidazo[5,1-f]pyrimido[2,1-c][1,2,4]triazin-6-one], for which the IC50 at PDE1C is less than 1000 nM; against PDE1B, less than 1 µM; on PDE1A (PDE 1A3), less than 1 µM.
Take `Cc1ccc([C@H]2CN3C(=O)c4cnc(C(C)C)n4NC3=N2)cc1` [Example 96, (2S)-8-Isopropyl-2-(4-methylphenyl)-2,10-dihydro-3H,5H-diimidazo[2,1-c:5′,1′-f][1,2,4]triazin-5-one]: the 50% inhibitory concentration (IC50) at PDE1C is less than 1000 nM; at PDE1B, less than 1 µM; against PDE1A (PDE 1A3) it was less than 1 µM.
With `O=c1c2cnc(C3CCOCC3)n2nc2n1C[C@H](c1ccc(Cl)cc1)N2` [Example 139], the IC50 against PDE1C is 1000 to 10000 nM; at PDE1B, less than 1 µM; against PDE1A (PDE 1A3), less than 1 µM.
For `CC(C)n1ncc2c(=O)n3c(nc21)N[C@@H](c1ccc(Cl)cc1)C3` [Example 144], the IC50 against PDE1C is less than 1000 nM; against PDE1B it was less than 1 µM; on PDE1A (PDE 1A3), less than 1 µM.
On to `COc1ccc([C@H]2Cn3c(nn4c(C5CCOCC5)ncc4c3=O)N2)cc1` [Example 151, (2S)-2-(4-Methoxyphenyl)-8-(tetrahydro-2H-pyran-4-yl)-2,10-dihydro-3H,5H-diimidazo[2,1-c:5′,1′-f][1,2,4]triazin-5-one], for which the results for the half-inhibitory concentration (IC50) on PDE1C, against PDE1B and against PDE1A (PDE 1A3) were less than 1000 nM, less than 1 µM and less than 1 µM, respectively.
On PDE1B, `C[C@H](O)c1ncc2c(=O)n3c(nn12)N[C@@H](c1ccc(Cl)cc1)CC3` [Example 249] showed a 50% inhibitory concentration (IC50) of 1 to 10 µM.
For the compound `C[C@@H](O)c1ncc2c(=O)n3c(nn12)N[C@@H](c1ccc(Cl)cc1)CC3` [Example 250], at PDE1B, the half-maximal inhibitory concentration (IC50) is less than 1 µM.
As to `O=c1c2cnc(C(F)(F)F)n2nc2n1C[C@H](c1ccc(Cl)cc1)N2` [Example 251, (2S)-2-(4-Chlorophenyl)-8-(trifluoromethyl)-2,10-dihydro-3H,5H-diimidazo[2,1-c:5′,1′-f][1,2,4]triazin-5-one], the IC50 against PDE1B lay within 1 to 10 µM.
With `CC(=O)c1ncc2c(=O)n3c(nn12)N[C@@H](c1ccc(Cl)cc1)CC3` [Example 252, (2R)-9-Acetyl-2-(4-chlorophenyl)-1,2,3,4-tetrahydro-6H-imidazo[5,1-f]pyrimido[2,1-c][1,2,4]triazin-6-one], the half-inhibitory concentration (IC50) on PDE1B fell in the range of 1 to 10 µM.
At PDE1B, `O=c1c2cnc(C3CCNCC3)n2nc2n1CCC(c1ccc(Cl)cc1)N2` (centres unmarked) [Example 253, 2-(4-Chlorophenyl)-9-(4-piperidinyl)-1,2,3,4-tetrahydro-6H-imidazo[5,1-f]pyrimido[2,1-c][1,2,4]triazin-6-one] came in with an IC50 of 1 to 10 µM.
Same read-out and setting: next, `CC(C)n1ncc2c(=O)n3c(nc21)NCCC3` [Example 254, 1-Isopropyl-6,7,8,10-tetrahydropyrazolo[3,4-d]pyrimido[1,2-a]pyrimidin-4(1H)-one]: less than 1 µM.
At PDE1B, `COc1ccc([C@@H]2CN3C(=O)c4cnc(C5(C(F)(F)F)CC5)n4NC3=N2)cc1` [Example 255, (2R)-2-(4-Methoxyphenyl)-8-[1-(trifluoromethyl)cyclopropyl]-2,10-dihydro-3H,5H-diimidazo[2,1-c:5′,1′-f][1,2,4]triazin-5-one] yielded an IC50 of less than 1 µM.
The same measure, in the same setting: the same measure for `COc1ccc([C@H]2CN3C(=O)c4cnc(C5(C(F)(F)F)CC5)n4NC3=N2)cc1` [Example 256, (2S)-2-(4-Methoxyphenyl)-8-[1-(trifluoromethyl)cyclopropyl]-2,10-dihydro-3H,5H-diimidazo[2,1-c:5′,1′-f][1,2,4]triazin-5-one]: less than 1 µM.
In turn, `CC(C)c1ncc2c(=O)n3c(nn12)N[C@@H](c1ccc(O)cc1)C3` [Example 261, (2S)-2-(4-Hydroxyphenyl)-8-isopropyl-2,10-dihydro-3H,5H-diimidazo[2,1-c:5′,1′-f][1,2,4]triazin-5-one] showed an IC50 on PDE1B of less than 1 µM.
Regarding `CC(C)c1ncc2c(=O)n3c(nn12)NC(c1ccc(OCF)cc1)C3` (centres unmarked) [Example 262, 2-[4-(Fluoromethoxy)phenyl]-8-isopropyl-2,10-dihydro-3H,5H-diimidazo[2,1-c:5′,1′-f][1,2,4]triazin-5-one], the IC50 on PDE1B was less than 1 µM.
Same read-out and setting: next, `Cc1cccc([C@@H]2CCn3c(nn4c(C5CCOCC5)ncc4c3=O)N2)c1` [Example 263, (2S)-2-(3-Methylphenyl)-9-(tetrahydro-2H-pyran-4-yl)-1,2,3,4-tetrahydro-6H-imidazo[5,1-f]pyrimido[2,1-c][1,2,4]triazin-6-one]: less than 1 µM; `Cc1cccc([C@H]2CCn3c(nn4c(C5CCOCC5)ncc4c3=O)N2)c1` [Example 264, (2R)-2-(3-Methylphenyl)-9-(tetrahydro-2H-pyran-4-yl)-1,2,3,4-tetrahydro-6H-imidazo[5,1-f]pyrimido[2,1-c][1,2,4]triazin-6-one]: less than 1 µM; `CC(C)n1ncc2c(=O)n3c(nc21)NC(c1ccc(C#N)cc1)C3` (centres unmarked) [compound 87]: less than 1 µM.
Regarding `CC(C)n1ncc2c(=O)n3c(nc21)NC(c1ccc(C#N)cc1)CC3` (centres unmarked) [compound 88], the half-maximal inhibitory concentration (IC50) at PDE1B was less than 1 µM.

As usually defined, the IC50 is the concentration that gives 50% inhibition. A low value points to higher potency.
